Legend:
barnyardgrass (Ec) [1] = experiment: Test Example 1: herbicidal effects by paddy field soil treatment; format: in vivo; details: 100 g of the active ingredient per 10 ares, 21st day after the application, index 0-5 of Table 47;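 note: grade of growth control; 5 = at least 90%; 4 = 70 to 90%; 3 = 50 to 70%; 2 = 30 to 50%; 1 = 10 to 30%; 0 = under 10%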
Summary of the method: (§1)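 Greenhouse pot test in flooded paddy soil, dosed at 100 g a.i. per 10 ares; effect scored on day 21.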

bulrush (Sc) = experiment: as above; format: in vivo; details: 100 g of the active ingredient per 10 ares, 21st day after the application, index 0-5 of Table 47;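 note: grade of growth control; 5 = at least 90%; 4 = 70 to 90%; 3 = 50 to 70%; 2 = 30 to 50%; 1 = 10 to 30%; 0 = under 10%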
Summary of the method: as §1

monochoria (Mo) = experiment: as above; format: in vivo; details: 100 g of the active ingredient per 10 ares, 21st day after the application, index 0-5 of Table 47;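 note: grade of growth control; 5 = at least 90%; 4 = 70 to 90%; 3 = 50 to 70%; 2 = 30 to 50%; 1 = 10 to 30%; 0 = under 10%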
Summary of the method: as §1

Digitaria ciliaris (Di) = experiment: Test Example 2: herbicidal effects by upland field soil treatment; format: in vivo; details: 100 g of the active ingredient per 10 ares, evaluated on the 21st day after application;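 note: grade of growth control; 5 = at least 90%; 4 = 70 to 90%; 3 = 50 to 70%; 2 = 30 to 50%; 1 = 10 to 30%; 0 = under 10%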
Text: (§2) (Test on Herbicidal Effects by Upland Field Soil Treatment)

barnyardgrass (Ec) [2] = experiment: as above; format: in vivo; details: 100 g of the active ingredient per 10 ares, evaluated on the 21st day after application
Text: as §2

[3] = test system: common lambsquarters (Ch); experiment: as above; format: in vivo; details: 100 g of the active ingredient per 10 ares, evaluated on the 21st day after application
Text: as §2

pale smartweed (Po) [4] = experiment: as above; format: in vivo; details: 100 g of the active ingredient per 10 ares, evaluated on the 21st day after application
Text: as §2

rice flatsedge (Ci) [5] = experiment: as above; format: in vivo; details: 100 g of the active ingredient per 10 ares, evaluated on the 21st day after application
Text: as §2

slender amaranth (Am) [6] = experiment: as above; format: in vivo; details: 100 g of the active ingredient per 10 ares, evaluated on the 21st day after application
Text: as §2

Diaitaria ciliaris (Di) = experiment: Test Example 3: herbicidal effects by upland field foliage treatment; format: in vivo; set-up: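 grade of growth control; 5 = at least 90%; 4 = 70 to 90%; 3 = 50 to 70%; 2 = 30 to 50%; 1 = 10 to 30%; 0 = under 10%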
Summary of the method: (§3)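 Seeds → sand pot (120 cm^2) → soil cover → greenhouse 2 wk → foliar treatment → greenhouse → herbicidal score at 14 d post-treatment against graded standards.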

barnyardgrass (Ec) [7] = experiment: as above; format: in vivo; set-up: scale not given here
Summary of the method: as §3

[8] = test system: common lambsquarters (Ch); experiment: as above; format: in vivo; set-up: scale not given here
Summary of the method: as §3

pale smartweed (Po) [9] = experiment: as above; format: in vivo; set-up: scale not given here
Summary of the method: as §3

rice flatsedge (Ci) [10] = experiment: as above; format: in vivo; set-up: scale not given here
Summary of the method: as §3

slender amaranth (Am) [11] = experiment: as above; format: in vivo; set-up: scale not given here
Summary of the method: as §3

wheat (Tr) = experiment: Test Example 9: crop plant selectivity by upland field foliage treatment (wheat), phytotoxicity; details: dose 1.6 g ai/10a, 14th day after treatment
Summary of the method: (§4)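 Wheat and weeds sown in sand-filled pots, grown 2 weeks in a greenhouse, then foliage-treated. Herbicidal effect and crop phytotoxicity were scored 14 days after treatment against a rating scale.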

China jute (Ab) [12] = experiment: Test Example 9: crop plant selectivity by upland field foliage treatment (wheat), herbicidal effects; format: in vivo; set-up: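 grade of growth control; 5 = at least 90%; 4 = 70 to 90%; 3 = 50 to 70%; 2 = 30 to 50%; 1 = 10 to 30%; 0 = under 10%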; details: dose 1.6 g ai/10a, 14th day after treatment
Summary of the method: as §4

[13] = test system: common lambsquarters (Ch); experiment: as above; format: in vivo; set-up: scale not given here; details: dose 1.6 g ai/10a, 14th day after treatment
Summary of the method: as §4

pale smartweed (Po) [14] = experiment: as above; format: in vivo; set-up: scale not given here; details: dose 1.6 g ai/10a, 14th day after treatment
Summary of the method: as §4

slender amaranth (Am) [15] = experiment: as above; format: in vivo; set-up: scale not given here; details: dose 1.6 g ai/10a, 14th day after treatment
Summary of the method: as §4

corn (Ze) = experiment: Test Example 11: crop plant selectivity by upland field foliage treatment (corn), phytotoxicity; details: dose 1.6 g ai/10a
Experimental: (§5) (Test on Crop Plant Selectivity by Upland Field Foliage Treatment)
(§6) In a plastic pot (surface area: 600 cm^2) filled with sand, corn (Ze), pale smartweed (Po), slender amaranth (Am), common lambsquarters (Ch) and China jute (Ab) were sown and cultured in a green house for 2 weeks. […] The plants were then cultured in a green house, and the evaluation of the herbicidal effects and phytotoxicity was conducted on the 14th day after the treatment in accordance with the standards as identified in Table 47.

China jute (Ab) [16] = experiment: Test Example 11: crop plant selectivity by upland field foliage treatment (corn), herbicidal effects; format: in vivo; set-up: scale not given here; details: dose 1.6 g ai/10a
Experimental: as §5, §6

[17] = test system: common lambsquarters (Ch); experiment: as above; format: in vivo; set-up: scale not given here; details: dose 1.6 g ai/10a
Experimental: as §5, §6

pale smartweed (Po) [18] = experiment: as above; format: in vivo; set-up: scale not given here; details: dose 1.6 g ai/10a
Experimental: as §5, §6

slender amaranth (Am) [19] = experiment: as above; format: in vivo; set-up: scale not given here; details: dose 1.6 g ai/10a
Experimental: as §5, §6

[20] = 100 g of the active ingredient per 10 ares, evaluated on the 14th day after treatment
[21] = upland field foliage treatment, 14th day after treatment
[22] = upland field foliage treatment (corn test), 14th day after treatment
[23] = 100 g active ingredient per 10 ares, evaluated 14th day after treatment

Row | SMILES | Herbicidal effects Ec (barnyardgrass (Ec) [1]) | Herbicidal effects Sc (bulrush (Sc)) | Herbicidal effects Mo (monochoria (Mo)) | Herbicidal effects Di (Digitaria ciliaris (Di)) | Herbicidal effects Ec (barnyardgrass (Ec) [2]) | Herbicidal effects Ch [3] | Herbicidal effects Po (pale smartweed (Po) [4]) | Herbicidal effects Ci (rice flatsedge (Ci) [5]) | Herbicidal effects Am (slender amaranth (Am) [6]) | Phytotoxicity Tr (wheat (Tr)) | Herbicidal effects Ab (China jute (Ab) [12]) | Herbicidal effects Ch [13] | Herbicidal effects Po (pale smartweed (Po) [14]) | Herbicidal effects Am (slender amaranth (Am) [15]) | Phytotoxicity Ze (corn (Ze); [21]) | Herbicidal effects Ab (China jute (Ab) [16]; [22]) | Herbicidal effects Ch [17, 22] | Herbicidal effects Po (pale smartweed (Po) [18]; [22]) | Herbicidal effects Am (slender amaranth (Am) [19]; [22]) | Herbicidal effects Di (Diaitaria ciliaris (Di); [23]) | also measured
1 | CC(C#N)Oc1cc(-c2ccc(C(F)(F)F)n(C)c2=O)c(F)cc1Cl (stereo not shown) [1-176] | 5 | 5 | 5 | 5 | 5 | 5 | 5 | 5 | 5 | 1 | 5 | 5 | 5 | 5 | 1 | 5 | 5 | 5 | 5 | – | Herbicidal effects Di (Diaitaria ciliaris (Di); [20]): 5; Herbicidal effects Ec (barnyardgrass (Ec) [7]; [20]): 5; Herbicidal effects Ch [8, 20]: 5; Herbicidal effects Po (pale smartweed (Po) [9]; [20]): 5; Herbicidal effects Ci (rice flatsedge (Ci) [10]; [20]): 5; Herbicidal effects Am (slender amaranth (Am) [11]; [20]): 5
2 | C=CCN1C(=O)COc2ccc(-c3ccc(C(F)(F)F)n(C)c3=O)cc21 [2-31] | 5 | 5 | 5 | 5 | 5 | 5 | 5 | 5 | 5 | 2 | 5 | 5 | 5 | 5 | 2 | 5 | 5 | 5 | 5 | 5 | Herbicidal effects Ec (barnyardgrass (Ec) [7]; [23]): 5; Herbicidal effects Ch [8, 23]: 5; Herbicidal effects Po (pale smartweed (Po) [9]; [23]): 5; Herbicidal effects Ci (rice flatsedge (Ci) [10]; [23]): 5; Herbicidal effects Am (slender amaranth (Am) [11]; [23]): 5
3 | COCOCc1cc(-c2ccc(C(F)(F)F)n(C)c2=O)c(F)cc1Cl [Compound 1-200] | 5 | 5 | 5 | 5 | 5 | 5 | 5 | 5 | 5 | 2 | 5 | 5 | 5 | 5 | 2 | 5 | 5 | 5 | 5 | 5 | Herbicidal effects Ec (barnyardgrass (Ec) [7]; [23]): 5; Herbicidal effects Ch [8, 23]: 5; Herbicidal effects Po (pale smartweed (Po) [9]; [23]): 5; Herbicidal effects Ci (rice flatsedge (Ci) [10]; [23]): 5; Herbicidal effects Am (slender amaranth (Am) [11]; [23]): 5
4 | Cn1c(C(F)(F)F)ccc(-c2cc(COC3CCCC3)c(Cl)cc2F)c1=O [Compound 1-201] | 5 | 5 | 5 | 5 | 5 | 5 | 5 | 5 | 5 | 2 | 5 | 5 | 5 | 5 | 2 | 5 | 5 | 5 | 5 | 5 | Herbicidal effects Ec (barnyardgrass (Ec) [7]; [23]): 4; Herbicidal effects Ch [8, 23]: 5; Herbicidal effects Po (pale smartweed (Po) [9]; [23]): 5; Herbicidal effects Ci (rice flatsedge (Ci) [10]; [23]): 5; Herbicidal effects Am (slender amaranth (Am) [11]; [23]): 5
5 | C=C(Cl)COc1cc(-c2ccc(C(F)(F)F)n(C)c2=O)c(F)cc1Cl [Compound 1-203] | 5 | 5 | 5 | 5 | 5 | 5 | 5 | 5 | 5 | 2 | 5 | 5 | 5 | 5 | 2 | 5 | 5 | 5 | 5 | 5 | Herbicidal effects Ec (barnyardgrass (Ec) [7]; [23]): 5; Herbicidal effects Ch [8, 23]: 5; Herbicidal effects Po (pale smartweed (Po) [9]; [23]): 5; Herbicidal effects Ci (rice flatsedge (Ci) [10]; [23]): 5; Herbicidal effects Am (slender amaranth (Am) [11]; [23]): 5
6 | Cn1c(C(F)(F)F)ccc(-c2cc(OCCCF)c(Cl)cc2F)c1=O [Compound 1-204] | 5 | 5 | 5 | 5 | 5 | 5 | 5 | 5 | 5 | 2 | 5 | 5 | 5 | 5 | 2 | 5 | 5 | 5 | 5 | 5 | Herbicidal effects Ec (barnyardgrass (Ec) [7]; [23]): 5; Herbicidal effects Ch [8, 23]: 5; Herbicidal effects Po (pale smartweed (Po) [9]; [23]): 5; Herbicidal effects Ci (rice flatsedge (Ci) [10]; [23]): 5; Herbicidal effects Am (slender amaranth (Am) [11]; [23]): 5
7 | COCN1C(=O)COc2cc(F)c(-c3ccc(C(F)(F)F)n(C)c3=O)cc21 [Compound 2-19] | 5 | 5 | 5 | 5 | 5 | 5 | 5 | 5 | 5 | 1 | 5 | 5 | 5 | 5 | 1 | 5 | 5 | 5 | 5 | 5 | Herbicidal effects Ec (barnyardgrass (Ec) [7]; [23]): 5; Herbicidal effects Ch [8, 23]: 5; Herbicidal effects Po (pale smartweed (Po) [9]; [23]): 5; Herbicidal effects Ci (rice flatsedge (Ci) [10]; [23]): 5; Herbicidal effects Am (slender amaranth (Am) [11]; [23]): 5
8 | C=CCn1c(=O)sc2cc(F)c(-c3ccc(C(F)(F)F)n(C)c3=O)cc21 [Compound 3-5] | 5 | 5 | 5 | 5 | 5 | 5 | 5 | 5 | 5 | 1 | 5 | 5 | 5 | 5 | 2 | 5 | 5 | 5 | 5 | 5 | Herbicidal effects Ec (barnyardgrass (Ec) [7]; [23]): 5; Herbicidal effects Ch [8, 23]: 5; Herbicidal effects Po (pale smartweed (Po) [9]; [23]): 5; Herbicidal effects Ci (rice flatsedge (Ci) [10]; [23]): 5; Herbicidal effects Am (slender amaranth (Am) [11]; [23]): 5
9 | Cn1c(C(F)(F)F)ccc(-c2cc3c(cc2F)sc(=O)n3C)c1=O [Compound 3-6] | 5 | 5 | 5 | 5 | 5 | 5 | 5 | 5 | 5 | 2 | 5 | 5 | 5 | 5 | 2 | 5 | 5 | 5 | 5 | 5 | Herbicidal effects Ec (barnyardgrass (Ec) [7]; [23]): 5; Herbicidal effects Ch [8, 23]: 5; Herbicidal effects Po (pale smartweed (Po) [9]; [23]): 5; Herbicidal effects Ci (rice flatsedge (Ci) [10]; [23]): 5; Herbicidal effects Am (slender amaranth (Am) [11]; [23]): 5
10 | CCCc1cc2c(Cl)cc(F)c(-c3ccc(C(F)(F)F)n(C)c3=O)c2o1 [Compound 5-3] | 5 | 5 | 5 | 5 | 5 | 5 | 5 | 5 | 5 | 1 | 5 | 5 | 5 | 5 | – | – | – | – | – | 5 | Herbicidal effects Ec (barnyardgrass (Ec) [7]; [23]): 5; Herbicidal effects Ch [8, 23]: 5; Herbicidal effects Po (pale smartweed (Po) [9]; [23]): 5; Herbicidal effects Ci (rice flatsedge (Ci) [10]; [23]): 5; Herbicidal effects Am (slender amaranth (Am) [11]; [23]): 5; Phytotoxicity Ze (corn (Ze); corn, foliage treatment, evaluated on 14th day after treatment, index per Table 47): 2; Herbicidal effects Ab (China jute (Ab) [16]; China jute, foliage treatment, evaluated on 14th day after treatment, index per Table 47): 5; Herbicidal effects Ch ([17]; common lambsquarters, foliage treatment, evaluated on 14th day after treatment, index per Table 47): 5; Herbicidal effects Po (pale smartweed (Po) [18]; pale smartweed, foliage treatment, evaluated on 14th day after treatment, index per Table 47): 5; Herbicidal effects Am (slender amaranth (Am) [19]; slender amaranth, foliage treatment, evaluated on 14th day after treatment, index per Table 47): 5

Reference: patent US6472348B1, “Pyridone derivatives and herbicides” (Kumiai Chemical Industry Co., Ltd., priority 1996, dated 2002)
